US20110105515A1, “TARGETING THE ONCOPROTEIN NUCLEOPHOSMIN” (President and Fellows of Harvard College, priority 2007, published 2011)

Experiments:
Assay in all cases: cells
HL-60(TB) = conditions: Homo sapiens, HL-60, 48 h; for CC50: read-out: LC50
OVCAR-5 = conditions: Homo sapiens, OVCAR-5, 48 h; for CC50: read-out: LC50
T-47D = conditions: Homo sapiens, T47D, 48 h
NCI-H23 = conditions: Homo sapiens, NCI-H23, 48 h; for CC50: read-out: LC50
M14 = conditions: Homo sapiens, M14, 48 h; for CC50: read-out: LC50
SK-MEL-28 = conditions: Homo sapiens, SK-MEL-28, 48 h; for CC50: read-out: LC50
SW-620 = conditions: Homo sapiens, SW-620, 48 h; for CC50: read-out: LC50
SF-295 = conditions: Homo sapiens, SF-295, 48 h; for CC50: read-out: LC50
HS578T = conditions: Homo sapiens, Hs-578T, 48 h
SF-268 = conditions: Homo sapiens, SF-268, 48 h; for CC50: read-out: LC50
U251 = conditions: Homo sapiens, U-251, 48 h; for CC50: read-out: LC50
HCT-15 = conditions: Homo sapiens, HCT-15, 48 h; for CC50: read-out: LC50
HT29 = conditions: Homo sapiens, HT-29, 48 h; for CC50: read-out: LC50
MDA-MB-468 = conditions: Homo sapiens, MDA-MB-468, 48 h; for CC50: read-out: LC50
SNB-75 = conditions: Homo sapiens, SNB-75, 48 h; for CC50: read-out: LC50
HCC-2998 = conditions: Homo sapiens, HCC 2998, 48 h; for CC50: read-out: LC50
DU-145 = conditions: Homo sapiens, DU-145, 48 h; for CC50: read-out: LC50
SNB-19 = conditions: Homo sapiens, SNB-19, 48 h; for CC50: read-out: LC50
UACC62 = conditions: Homo sapiens, UACC-62, 48 h; for CC50: read-out: LC50
KM12 = conditions: Homo sapiens, KM12, 48 h; for CC50: read-out: LC50
UO-31 = conditions: Homo sapiens, UO-31, 48 h; for CC50: read-out: LC50
CCRF-CEM = conditions: Homo sapiens, 48 h
A549/ATCC = conditions: Homo sapiens, A549, 48 h; for CC50: read-out: LC50
LOX IMVI = conditions: Homo sapiens, 48 h; for CC50: read-out: LC50
OVCAR-3 = conditions: Homo sapiens, OVCAR-3, 48 h; for CC50: read-out: LC50
NCI-H226 = conditions: Homo sapiens, NCI-H226, 48 h; for CC50: read-out: LC50
SF-539 = conditions: Homo sapiens, SF-539, 48 h; for CC50: read-out: LC50
HOP-62 = conditions: Homo sapiens, HOP-62, 48 h; for CC50: read-out: LC50
EKVX = conditions: Homo sapiens, 48 h; for CC50: read-out: LC50
UACC-257 = conditions: Homo sapiens, UACC-257, 48 h; for CC50: read-out: LC50
NCI/ADR-RES = conditions: Homo sapiens, 48 h; for CC50: read-out: LC50
RPMI-8226 = conditions: Homo sapiens, RPMI-8226, 48 h
MCF7 = conditions: Homo sapiens, MCF7, 48 h; for CC50: read-out: LC50
HCT-116 = conditions: Homo sapiens, HCT-116, 48 h; for CC50: read-out: LC50
SK-OV-3 = conditions: Homo sapiens, SK-OV-3, 48 h; for CC50: read-out: LC50

Compound `[2H]On1c2c(c3ccc4c(c31)C=CC(C)(C)O4)C(OC([2H])([2H])[2H])[C@@]13NC(=O)C4(CCCN4C1=O)CC3C2(C)C` (stereo partly drawn) [Deuterated Methanol Adduct] has a GI50 (HL-60(TB)) of 298 nM, a CC50 (HL-60(TB)) of 9370 nM and a GI50 (OVCAR-5) of 586 nM. For the same compound, the CC50 (OVCAR-5) was 4490 nM, the GI50 (T-47D) was 142 nM and the GI50 (NCI-H23) was 995 nM. It also gave a CC50 (NCI-H23) of 5900 nM, a GI50 (M14) of 1060 nM and a CC50 (M14) of 5900 nM. It also gave a GI50 (SK-MEL-28) of 457 nM, a CC50 (SK-MEL-28) of 4370 nM and a GI50 (SW-620) of 375 nM. It also gave a CC50 (SW-620) of 4900 nM, a GI50 (SF-295) of 1280 nM and a CC50 (SF-295) of 5810 nM. For the same compound, the GI50 (HS578T) was 492 nM, the GI50 (SF-268) was 1500 nM and the CC50 (SF-268) was 6060 nM. For the same compound, the GI50 (U251) was 382 nM, the CC50 (U251) was 3700 nM and the GI50 (HCT-15) was 548 nM. It also gave a CC50 (HCT-15) of 4230 nM, a GI50 (HT29) of 1260 nM and a CC50 (HT29) of 68100 nM. It also gave a GI50 (MDA-MB-468) of 292 nM, a CC50 (MDA-MB-468) of 6960 nM and a GI50 (SNB-75) of 265 nM. It also gave a CC50 (SNB-75) of 4720 nM, a GI50 (HCC-2998) of 692 nM and a CC50 (HCC-2998) of 4710 nM. It also gave a GI50 (DU-145) of 1750 nM, a CC50 (DU-145) of 5590 nM and a GI50 (SNB-19) of 1110 nM. The CC50 (SNB-19) was 4810 nM, the GI50 (UACC62) was 549 nM and the CC50 (UACC62) was 4390 nM. For the same compound, the GI50 (KM12) was 1270 nM, the CC50 (KM12) was 5020 nM and the GI50 (UO-31) was 498 nM. For the same compound, the CC50 (UO-31) was 4290 nM, the GI50 (CCRF-CEM) was 185 nM and the CC50 (CCRF-CEM; read-out: LC50) was 4600 nM. For the same compound, the GI50 (A549/ATCC) was 1560 nM, the CC50 (A549/ATCC) was 5730 nM and the GI50 (LOX IMVI) was 969 nM. For the same compound, the CC50 (LOX IMVI) was 4630 nM, the GI50 (OVCAR-3) was 616 nM and the CC50 (OVCAR-3) was 4270 nM. For the same compound, the GI50 (NCI-H226) was 391 nM, the CC50 (NCI-H226) was 4120 nM and the GI50 (SF-539) was 431 nM. For the same compound, the CC50 (SF-539) was 3830 nM, the GI50 (HOP-62) was 2390 nM and the CC50 (HOP-62) was 26700 nM. For the same compound, the GI50 (EKVX) was 594 nM, the CC50 (EKVX) was 4640 nM and the GI50 (UACC-257) was 587 nM. The CC50 (UACC-257) was 4450 nM, the GI50 (NCI/ADR-RES) was 2610 nM and the CC50 (NCI/ADR-RES) was 39400 nM. For the same compound, the GI50 (RPMI-8226) was 40.2 nM, the CC50 (RPMI-8226; read-out: LC50) was 3300 nM and the GI50 (MCF7) was 348 nM. It also gave a CC50 (MCF7) of 4560 nM, a GI50 (HCT-116) of 744 nM and a CC50 (HCT-116) of 4440 nM. It also gave a GI50 (SK-OV-3) of 1010 nM and a CC50 (SK-OV-3) of 4650 nM.

In the case of `Cc1cc(C)cc(-c2ccc3c(c2)[N+]([O-])=C2C3=C[C@@]34NC(=O)C5(CCCN5C3=O)CC4C2(C)C)c1` (stereo partly drawn) [Biphenyl Analogue], the GI50 (HL-60(TB)) is reported as 131 nM, the CC50 (HL-60(TB)) is reported as 64300 nM and the GI50 (OVCAR-5) is reported as 368 nM. The CC50 (OVCAR-5) was 4210 nM, the GI50 (T-47D) was 57.6 nM and the GI50 (NCI-H23) was 206 nM. It also gave a CC50 (NCI-H23) of 3580 nM, a GI50 (M14) of 205 nM and a CC50 (M14) of 2180 nM. For the same compound, the GI50 (SK-MEL-28) was 252 nM, the CC50 (SK-MEL-28) was 3770 nM and the GI50 (SW-620) was 151 nM. It also gave a CC50 (SW-620) of 806 nM, a GI50 (SF-295) of 392 nM and a CC50 (SF-295) of 3970 nM. For the same compound, the GI50 (HS578T) was 546 nM, the CC50 (HS578T; read-out: LC50) was over 100000 nM and the GI50 (SF-268) was 236 nM. The CC50 (SF-268) was 3320 nM, the GI50 (U251) was 136 nM and the CC50 (U251) was 547 nM. It also gave a GI50 (HCT-15) of 146 nM, a CC50 (HCT-15) of 710 nM and a GI50 (HT29) of 284 nM. For the same compound, the CC50 (HT29) was over 100000 nM, the GI50 (MDA-MB-468) was 160 nM and the CC50 (MDA-MB-468) was 3030 nM. It also gave a GI50 (SNB-75) of 242 nM, a CC50 (SNB-75) of 3860 nM and a GI50 (HCC-2998) of 269 nM. It also gave a CC50 (HCC-2998) of 3500 nM, a GI50 (DU-145) of 280 nM and a CC50 (DU-145) of 3660 nM. For the same compound, the GI50 (SNB-19) was 238 nM, the CC50 (SNB-19) was 3090 nM and the GI50 (UACC62) was 161 nM. For the same compound, the CC50 (UACC62) was 1850 nM, the GI50 (KM12) was 257 nM and the CC50 (KM12) was 3910 nM. It also gave a GI50 (UO-31) of 190 nM, a CC50 (UO-31) of 2760 nM and a GI50 (CCRF-CEM) of 105 nM. For the same compound, the GI50 (A549/ATCC) was 279 nM, the CC50 (A549/ATCC) was 3000 nM and the GI50 (LOX IMVI) was 139 nM. The CC50 (LOX IMVI) was 534 nM, the GI50 (OVCAR-3) was 158 nM and the CC50 (OVCAR-3) was 986 nM. For the same compound, the GI50 (NCI-H226) was 199 nM, the CC50 (NCI-H226) was 2920 nM and the GI50 (SF-539) was 186 nM. It also gave a CC50 (SF-539) of 1170 nM, a GI50 (HOP-62) of 1640 nM and a CC50 (HOP-62) of 6740 nM. For the same compound, the GI50 (EKVX) was 296 nM, the CC50 (EKVX) was 3470 nM and the GI50 (UACC-257) was 272 nM. The CC50 (UACC-257) was 3740 nM, the GI50 (NCI/ADR-RES) was 992 nM and the CC50 (NCI/ADR-RES) was 5180 nM. For the same compound, the GI50 (RPMI-8226) was 10.2 nM, the GI50 (MCF7) was 212 nM and the CC50 (MCF7) was 5510 nM. It also gave a GI50 (HCT-116) of 186 nM, a CC50 (HCT-116) of 764 nM and a GI50 (SK-OV-3) of 300 nM. It also gave a CC50 (SK-OV-3) of 3450 nM.
